Among the targets are ABHD6 (UniProt Q9BV23); MAP4K5 (UniProt Q9Y4K4); SCCPDH (UniProt Q8NBX0); SLK (UniProt Q9H2G2); UniProt Q92918; CDK5 (UniProt Q00535).
What all share (experiment): pIC50, competition of probe 3 labelling in live cells
Conditions in all cases: cell material: Jurkat cells

A further experiment has as its target T1, SGK3 (UniProt Q96BR1).
T1 sequence (whole entry): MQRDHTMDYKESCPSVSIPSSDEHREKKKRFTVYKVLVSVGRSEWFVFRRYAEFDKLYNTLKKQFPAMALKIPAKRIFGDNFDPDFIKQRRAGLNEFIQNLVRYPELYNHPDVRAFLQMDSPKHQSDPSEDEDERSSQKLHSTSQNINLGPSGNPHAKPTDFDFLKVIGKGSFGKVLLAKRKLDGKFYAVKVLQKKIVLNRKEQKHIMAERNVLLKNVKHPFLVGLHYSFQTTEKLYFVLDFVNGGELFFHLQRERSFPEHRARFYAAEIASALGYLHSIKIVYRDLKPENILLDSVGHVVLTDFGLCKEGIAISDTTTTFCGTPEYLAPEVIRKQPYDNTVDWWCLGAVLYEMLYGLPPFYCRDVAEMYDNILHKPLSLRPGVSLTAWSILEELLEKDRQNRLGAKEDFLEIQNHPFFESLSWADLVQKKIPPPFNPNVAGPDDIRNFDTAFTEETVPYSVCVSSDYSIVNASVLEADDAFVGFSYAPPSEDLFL

The target in a further experiment is T2, UniProt Q13188.
T2 sequence (whole entry): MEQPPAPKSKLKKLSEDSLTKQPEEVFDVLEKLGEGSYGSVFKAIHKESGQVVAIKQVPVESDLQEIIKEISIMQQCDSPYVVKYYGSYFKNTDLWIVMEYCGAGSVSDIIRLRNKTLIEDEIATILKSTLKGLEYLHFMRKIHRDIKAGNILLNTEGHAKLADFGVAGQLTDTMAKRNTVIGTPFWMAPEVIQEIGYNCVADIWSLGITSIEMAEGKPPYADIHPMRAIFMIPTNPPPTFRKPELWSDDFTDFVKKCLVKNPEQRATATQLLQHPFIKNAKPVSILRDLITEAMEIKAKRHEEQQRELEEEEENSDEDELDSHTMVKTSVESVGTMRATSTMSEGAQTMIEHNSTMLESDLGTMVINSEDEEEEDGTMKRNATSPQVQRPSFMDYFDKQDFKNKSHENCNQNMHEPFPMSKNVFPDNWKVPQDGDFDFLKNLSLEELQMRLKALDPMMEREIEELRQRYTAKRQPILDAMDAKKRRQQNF

In the next experiment the target is T3, UniProt Q15831.
T3 sequence (whole entry): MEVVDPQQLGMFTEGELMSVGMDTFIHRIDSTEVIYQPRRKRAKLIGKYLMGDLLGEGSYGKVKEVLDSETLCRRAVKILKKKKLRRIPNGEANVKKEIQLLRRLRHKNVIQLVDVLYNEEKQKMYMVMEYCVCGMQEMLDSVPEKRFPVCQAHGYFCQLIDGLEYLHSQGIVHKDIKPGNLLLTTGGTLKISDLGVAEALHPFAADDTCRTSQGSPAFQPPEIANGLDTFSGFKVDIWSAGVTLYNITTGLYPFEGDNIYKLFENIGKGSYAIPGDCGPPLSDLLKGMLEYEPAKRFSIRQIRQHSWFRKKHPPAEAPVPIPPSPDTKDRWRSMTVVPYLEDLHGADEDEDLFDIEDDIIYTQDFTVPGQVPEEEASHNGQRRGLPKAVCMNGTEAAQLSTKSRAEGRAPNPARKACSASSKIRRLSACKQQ

The next experiment has as its target T4, MASTL (UniProt Q96GX5).
T4 sequence (whole entry): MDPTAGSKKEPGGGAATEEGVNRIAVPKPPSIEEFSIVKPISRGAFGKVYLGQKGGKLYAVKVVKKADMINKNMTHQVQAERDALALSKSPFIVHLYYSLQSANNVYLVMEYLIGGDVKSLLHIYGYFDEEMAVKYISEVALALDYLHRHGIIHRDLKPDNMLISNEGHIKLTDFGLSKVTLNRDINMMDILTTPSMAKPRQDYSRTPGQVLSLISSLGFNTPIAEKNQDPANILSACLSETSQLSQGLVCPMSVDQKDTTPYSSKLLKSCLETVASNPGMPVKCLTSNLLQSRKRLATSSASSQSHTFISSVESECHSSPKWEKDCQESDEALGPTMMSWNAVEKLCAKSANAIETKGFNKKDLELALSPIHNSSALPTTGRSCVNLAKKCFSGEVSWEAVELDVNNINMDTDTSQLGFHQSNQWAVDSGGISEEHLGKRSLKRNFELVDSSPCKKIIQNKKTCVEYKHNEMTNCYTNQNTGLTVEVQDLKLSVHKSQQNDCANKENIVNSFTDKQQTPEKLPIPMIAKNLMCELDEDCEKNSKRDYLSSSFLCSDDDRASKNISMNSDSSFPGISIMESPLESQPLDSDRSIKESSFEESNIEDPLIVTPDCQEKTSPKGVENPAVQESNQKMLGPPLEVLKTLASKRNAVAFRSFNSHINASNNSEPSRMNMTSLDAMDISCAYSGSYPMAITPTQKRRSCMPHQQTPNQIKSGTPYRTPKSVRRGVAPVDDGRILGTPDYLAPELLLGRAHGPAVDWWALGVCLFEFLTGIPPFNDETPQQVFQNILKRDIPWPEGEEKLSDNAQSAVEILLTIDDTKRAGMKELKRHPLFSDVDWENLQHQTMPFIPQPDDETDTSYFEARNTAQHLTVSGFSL

The values that follow come from the supplement of paper PMC12076712.

Molecules are shown by their SMILES. ± gives the standard deviation of the averaged measurements. Bounds are passed on as bounds.

For orientation: pIC50 means the IC50 on a negative log10 scale, so that one unit is a factor of ten. Read a low pIC50 as a large IC50.

Sequence of SLK (Q9H2G2 whole entry, looked up): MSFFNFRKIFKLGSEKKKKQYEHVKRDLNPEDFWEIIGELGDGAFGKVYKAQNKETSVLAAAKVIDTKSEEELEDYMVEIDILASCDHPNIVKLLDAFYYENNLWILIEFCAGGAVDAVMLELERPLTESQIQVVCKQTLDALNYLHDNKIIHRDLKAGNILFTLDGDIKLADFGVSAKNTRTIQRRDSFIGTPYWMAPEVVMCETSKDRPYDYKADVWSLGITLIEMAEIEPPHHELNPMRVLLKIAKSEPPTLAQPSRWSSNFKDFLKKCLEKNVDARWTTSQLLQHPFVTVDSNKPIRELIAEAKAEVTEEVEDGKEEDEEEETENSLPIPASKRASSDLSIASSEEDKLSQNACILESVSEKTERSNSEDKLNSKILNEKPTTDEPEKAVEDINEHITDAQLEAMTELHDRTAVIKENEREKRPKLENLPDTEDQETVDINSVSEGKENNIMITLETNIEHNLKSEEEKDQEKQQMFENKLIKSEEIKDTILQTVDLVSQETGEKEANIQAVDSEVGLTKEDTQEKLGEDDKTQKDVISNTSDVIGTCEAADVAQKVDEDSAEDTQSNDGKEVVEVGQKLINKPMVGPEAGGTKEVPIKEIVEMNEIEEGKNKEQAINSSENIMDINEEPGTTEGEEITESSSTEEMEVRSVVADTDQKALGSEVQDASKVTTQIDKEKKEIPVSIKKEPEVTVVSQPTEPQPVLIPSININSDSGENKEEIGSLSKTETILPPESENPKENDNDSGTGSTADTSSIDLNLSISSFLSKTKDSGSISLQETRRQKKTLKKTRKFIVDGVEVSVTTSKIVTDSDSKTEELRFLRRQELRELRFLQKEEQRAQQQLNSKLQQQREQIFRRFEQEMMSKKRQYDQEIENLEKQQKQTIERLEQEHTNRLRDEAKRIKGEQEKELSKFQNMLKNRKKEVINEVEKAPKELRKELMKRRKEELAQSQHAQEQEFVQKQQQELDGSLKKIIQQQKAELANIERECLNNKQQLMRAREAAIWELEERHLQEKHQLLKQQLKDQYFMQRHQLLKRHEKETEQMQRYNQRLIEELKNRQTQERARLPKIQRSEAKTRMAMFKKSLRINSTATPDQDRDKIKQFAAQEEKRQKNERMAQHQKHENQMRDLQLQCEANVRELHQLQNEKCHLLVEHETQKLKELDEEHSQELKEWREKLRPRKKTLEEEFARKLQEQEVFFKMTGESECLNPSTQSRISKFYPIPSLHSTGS
Sequence of SCCPDH (Q8NBX0 whole entry): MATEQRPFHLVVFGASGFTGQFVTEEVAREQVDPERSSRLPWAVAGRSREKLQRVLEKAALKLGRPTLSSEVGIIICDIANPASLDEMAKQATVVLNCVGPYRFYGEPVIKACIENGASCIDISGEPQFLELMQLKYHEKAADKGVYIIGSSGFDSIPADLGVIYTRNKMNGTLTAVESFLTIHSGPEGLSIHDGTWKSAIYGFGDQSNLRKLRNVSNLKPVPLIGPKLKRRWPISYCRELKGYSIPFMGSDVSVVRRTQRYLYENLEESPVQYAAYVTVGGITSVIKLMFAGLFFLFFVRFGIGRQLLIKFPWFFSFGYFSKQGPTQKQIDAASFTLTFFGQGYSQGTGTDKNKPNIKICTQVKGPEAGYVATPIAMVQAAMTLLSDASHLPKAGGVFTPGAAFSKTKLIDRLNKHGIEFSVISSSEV
Sequence of MAP4K5 (Q9Y4K4 whole entry, looked up): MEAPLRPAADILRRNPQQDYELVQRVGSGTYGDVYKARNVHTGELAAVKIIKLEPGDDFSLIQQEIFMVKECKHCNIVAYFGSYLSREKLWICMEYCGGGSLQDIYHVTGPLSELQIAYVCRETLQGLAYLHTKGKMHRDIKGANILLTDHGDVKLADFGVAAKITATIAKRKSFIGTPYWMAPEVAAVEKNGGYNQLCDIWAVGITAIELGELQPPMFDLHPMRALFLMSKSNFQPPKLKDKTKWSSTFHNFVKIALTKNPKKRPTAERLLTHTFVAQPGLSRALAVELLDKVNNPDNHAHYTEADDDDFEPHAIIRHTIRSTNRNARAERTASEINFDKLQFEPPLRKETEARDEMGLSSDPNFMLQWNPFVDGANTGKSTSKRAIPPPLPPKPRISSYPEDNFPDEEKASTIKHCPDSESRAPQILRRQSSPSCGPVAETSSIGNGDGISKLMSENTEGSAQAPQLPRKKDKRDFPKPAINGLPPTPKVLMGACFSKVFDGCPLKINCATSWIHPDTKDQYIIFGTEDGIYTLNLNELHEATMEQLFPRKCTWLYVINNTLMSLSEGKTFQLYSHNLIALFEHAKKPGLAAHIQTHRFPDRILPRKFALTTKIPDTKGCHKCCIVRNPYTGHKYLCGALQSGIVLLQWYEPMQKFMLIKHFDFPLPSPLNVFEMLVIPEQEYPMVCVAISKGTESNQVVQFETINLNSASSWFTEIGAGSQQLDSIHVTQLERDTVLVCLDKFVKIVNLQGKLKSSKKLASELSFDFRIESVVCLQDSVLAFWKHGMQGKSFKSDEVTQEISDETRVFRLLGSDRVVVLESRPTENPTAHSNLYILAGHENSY
Sequence of ABHD6 (Q9BV23 whole entry): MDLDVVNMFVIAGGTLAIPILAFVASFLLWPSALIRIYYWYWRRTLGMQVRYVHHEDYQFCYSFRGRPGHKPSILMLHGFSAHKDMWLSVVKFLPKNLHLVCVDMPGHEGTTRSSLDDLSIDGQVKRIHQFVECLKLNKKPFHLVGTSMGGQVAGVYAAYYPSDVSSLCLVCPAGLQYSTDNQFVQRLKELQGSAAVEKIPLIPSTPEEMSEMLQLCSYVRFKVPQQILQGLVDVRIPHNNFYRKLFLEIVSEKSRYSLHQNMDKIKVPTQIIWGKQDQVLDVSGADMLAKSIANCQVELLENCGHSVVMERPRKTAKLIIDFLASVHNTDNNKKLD
Sequence of UniProt Q92918 (Q92918 whole entry, looked up): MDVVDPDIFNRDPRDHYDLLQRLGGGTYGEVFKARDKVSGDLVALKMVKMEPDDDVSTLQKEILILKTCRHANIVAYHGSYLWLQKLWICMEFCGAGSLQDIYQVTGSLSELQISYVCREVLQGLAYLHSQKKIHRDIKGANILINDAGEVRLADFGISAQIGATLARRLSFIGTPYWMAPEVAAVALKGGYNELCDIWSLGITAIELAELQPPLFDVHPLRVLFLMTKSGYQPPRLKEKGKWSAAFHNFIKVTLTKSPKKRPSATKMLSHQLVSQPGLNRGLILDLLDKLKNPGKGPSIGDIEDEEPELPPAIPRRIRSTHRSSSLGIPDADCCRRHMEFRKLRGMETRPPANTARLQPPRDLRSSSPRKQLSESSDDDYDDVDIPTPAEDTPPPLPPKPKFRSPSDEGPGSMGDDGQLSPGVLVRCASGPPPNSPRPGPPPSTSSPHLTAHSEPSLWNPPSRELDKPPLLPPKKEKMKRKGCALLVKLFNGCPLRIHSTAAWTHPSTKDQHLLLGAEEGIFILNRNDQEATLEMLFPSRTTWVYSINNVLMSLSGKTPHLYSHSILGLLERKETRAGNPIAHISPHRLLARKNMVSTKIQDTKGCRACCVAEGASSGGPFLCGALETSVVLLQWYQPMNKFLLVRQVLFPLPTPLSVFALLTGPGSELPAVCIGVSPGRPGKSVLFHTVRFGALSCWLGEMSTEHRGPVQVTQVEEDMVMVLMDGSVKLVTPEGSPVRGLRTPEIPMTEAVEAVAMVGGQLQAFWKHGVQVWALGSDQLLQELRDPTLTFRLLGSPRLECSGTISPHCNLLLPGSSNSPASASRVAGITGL
Sequence of CDK5 (Q00535 whole entry, looked up): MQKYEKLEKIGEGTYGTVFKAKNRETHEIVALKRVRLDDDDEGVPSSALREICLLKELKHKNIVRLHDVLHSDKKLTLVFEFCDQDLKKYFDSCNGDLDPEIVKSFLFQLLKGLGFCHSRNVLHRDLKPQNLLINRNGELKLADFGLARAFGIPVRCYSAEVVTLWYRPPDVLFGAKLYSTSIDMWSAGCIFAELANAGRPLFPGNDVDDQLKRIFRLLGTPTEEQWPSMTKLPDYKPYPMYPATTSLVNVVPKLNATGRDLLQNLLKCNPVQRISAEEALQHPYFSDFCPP

As to `CCc1cnn2c(NCc3ccc[n+]([O-])c3)cc(N3CCCC[C@H]3CCO)nc12` [dinaciclib], the pIC50 on ABHD6, at MAP4K5, on SCCPDH, on SGK3, at SLK and at UniProt Q13188 was less than 4.52 each time. The pIC50 at UniProt Q15831 is 5.24 ± 0.12; on UniProt Q92918, less than 4.52.

Turning to `CC#CC(=O)Nc1ccc2ncnc(Nc3cccc(Br)c3)c2c1` [EKI-785], the pIC50 on CDK5 and at MASTL was less than 4.52 in each case.
